Test results taken from patent US5922887A, “Diaryldiamine derivatives and their use as delta opiod (ANT)-agonists” (SmithKline Beecham SpA, priority 1995, dated 1999).
Structures can show the parent of a compound that is named as a salt.

Columns and labels:
delta opioid receptor [1] = target: T1, delta opioid receptor (Mus musculus, UniProt P32300); experiment: radioligand binding assay, delta receptor ([3H]-DADLE, mouse brain membranes); conditions: [3H]-DADLE 1.3 nM in presence of 40 nM DAMGO, read-out: Ki δ
T1 sequence (P32300 whole entry): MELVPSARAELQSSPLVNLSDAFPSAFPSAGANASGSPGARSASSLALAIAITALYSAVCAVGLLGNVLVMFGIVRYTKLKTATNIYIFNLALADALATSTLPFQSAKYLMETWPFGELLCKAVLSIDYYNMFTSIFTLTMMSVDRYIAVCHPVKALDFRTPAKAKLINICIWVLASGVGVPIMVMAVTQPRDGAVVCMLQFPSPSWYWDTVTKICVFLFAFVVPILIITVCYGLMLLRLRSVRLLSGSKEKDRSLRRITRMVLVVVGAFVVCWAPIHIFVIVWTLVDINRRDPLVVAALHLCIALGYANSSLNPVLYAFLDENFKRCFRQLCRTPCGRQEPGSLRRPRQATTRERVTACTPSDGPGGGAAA
Method: (§1) The activity of the compounds of the present invention as selective delta ligands is determined in radioligand binding assays as described below.
(§2) Mouse brain membranes were prepared as described by Kosterlitz (Br. J. Pharmacol., 1981, 73, 939.). The binding of the preferential delta ligand [^3 H]-[D-Ala^2, D-Leu^5 ]-enkephalin (DADLE) was evaluated at its KD concentration (1.3 nM) in presence of 40 nM of the unlabelled mu ligand [D-Ala^2, MePhe^4, Gly-ol^5 ]-enkephalin (DAMGO). The binding of the mu ligand [^3 H]-DAMGO (Eur. J. Pharmacol., 1989, 166, 213) and of the kappa ligand [^3 H]-U69593 (Excerpta Medica, 1990, 211) were carried out at 0.5 nM. The non-specific binding was determined in presence of naloxone (10 μM) for all tritiated ligands. Binding data were expressed as percentage of inhibition and fitted the following equation: f(x)=100·X/(IC50 +X) where X are cold drug concentration values. The IC50 obtained were used to calculate the inhibitory constants (Ki) accordingly to the Cheng and Prusoff relation (Biochenl. Pharmaco., 1973, 22, 3099).

delta opioid receptor [2] = target: T1, delta opioid receptor; experiment: mouse vas deferens (MVD) bioassay, delta agonist/antagonist activity; design: Vasa deferentia were obtained from CD-1 mice; from tissue; host or cells: vas deferens of CD-1 mice
Method: The delta agonist/antagonist activity of the compounds of the present invention is determined in the mouse vas deferens (MVD) bioassay as described below.
Vasa deferentia were obtained from CD-1 mice and were suspended in a Mg^2+ -free Krebs buffer at 37° C. The tissues were electrically stimulated with pulse trans having the following parameters: train duration 50 ms, stimulus duration 2 ms, frequency of stimuli 50 Hz, maximal voltage 60-70 V, train frequency 0.1 Hz. Concentration response curves for each compounds were constructed cumulatively. Linear regression analysis and IC50 concentrations were evaluated according to Tallarida and Murray (Manual of Pharmacological Calculations, Springer Verlag N.Y., 1981).

mu opioid receptor = target: T2, mu opioid receptor (Mus musculus, UniProt P42866); experiment: radioligand binding assay, mu receptor ([3H]-DAMGO, mouse brain membranes); conditions: selectivity ratio mu over delta
T2 construct: Mouse brain membranes were prepared as described by Kosterlitz; from tissue; host or cells: mouse brain membranes
T2 sequence (P42866 whole entry): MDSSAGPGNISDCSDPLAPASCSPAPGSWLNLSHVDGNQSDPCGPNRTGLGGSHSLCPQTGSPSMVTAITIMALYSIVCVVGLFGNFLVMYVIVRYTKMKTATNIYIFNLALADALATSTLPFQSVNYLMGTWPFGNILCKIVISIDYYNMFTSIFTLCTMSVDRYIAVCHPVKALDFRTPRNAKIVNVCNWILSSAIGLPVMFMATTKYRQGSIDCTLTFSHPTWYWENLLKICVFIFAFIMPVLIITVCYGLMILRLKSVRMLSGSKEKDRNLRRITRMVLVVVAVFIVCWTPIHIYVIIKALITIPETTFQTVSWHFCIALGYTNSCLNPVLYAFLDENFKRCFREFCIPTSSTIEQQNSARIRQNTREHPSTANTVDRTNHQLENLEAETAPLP
Method: as §1, §2

kappa opioid receptor = target: T3, kappa opioid receptor (Mus musculus, UniProt P33534); experiment: radioligand binding assay, kappa receptor ([3H]-U69593, mouse brain membranes); conditions: selectivity ratio kappa over delta
T3 construct: Mouse brain membranes were prepared as described by Kosterlitz; from tissue; host or cells: mouse brain membranes
T3 sequence (P33534 whole entry): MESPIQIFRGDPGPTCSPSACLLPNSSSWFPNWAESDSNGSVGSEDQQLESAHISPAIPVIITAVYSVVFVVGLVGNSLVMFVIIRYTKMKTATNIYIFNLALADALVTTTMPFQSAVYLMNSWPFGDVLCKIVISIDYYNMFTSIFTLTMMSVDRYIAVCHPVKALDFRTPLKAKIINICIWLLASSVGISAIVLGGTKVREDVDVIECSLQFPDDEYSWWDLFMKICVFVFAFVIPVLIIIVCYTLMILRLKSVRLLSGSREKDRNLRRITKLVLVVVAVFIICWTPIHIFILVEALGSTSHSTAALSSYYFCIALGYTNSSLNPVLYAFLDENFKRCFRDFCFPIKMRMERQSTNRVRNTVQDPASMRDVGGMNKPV
Method: as §1, §2

| SMILES | Ki (delta opioid receptor [1]) [nM] | shift of the dose-response curve caused by NTI (delta opioid receptor [2]; 30 nM of NTI (naltrindole)) [fold] | IC50 (delta opioid receptor [2]; electrically stimulated CD-1 mouse vas deferens, 37° C., delta agonists) [nM] | Ki μ/Ki δ (mu opioid receptor) | Ki κ/Ki δ (kappa opioid receptor) |
| --- | --- | --- | --- | --- | --- |
| CCN(CC)C(=O)c1ccc(N(c2cccc(O)c2)C(C)CN2CCCC2)cc1 (racemic) [Example 5, (±)-N,N-diethyl-4-[[N-(3-hydroxyphenyl)-N-(3-pyrrolidinoprop-2-yl)]amino]benzamide citrate] | 3.9 | 10 | 7 | – | – |
| CCN(CC)C(=O)c1ccc(N(c2cccc(O)c2)C(C)CN(C)C)cc1 (racemic) [Example 9, (±)-N,N-diethyl-4-[[N-(3-dimethylaminoprop-2-yl)-N-(3-hydroxyphenyl)]amino]benzamide oxalate] | 3.9 | – | – | 148 | 153 |
